Data reported in article PMC8722715 (Frontiers in Cell and Developmental Biology, 2021).

How the values were obtained:
hNaV1.7 channel = molecular target: T1, hNaV1.7 channel (Homo sapiens, UniProt Q15858); experiment: Automated patch-clamp block of hNaV1.7 peak Na+ current in CHO cells; type: cell-based; conditions: for IC50: CHO cells stably expressing hNaV1.7, SyncroPatch 384 PE whole-cell, holding -100 mV, -10 mV test pulse 50 ms every 5 s, room temperature 18-22°C, 0.3% BSA, steady state or end of 15-min application, mean, S.E.M. and n cells; for hNaV1.7/hNaV1.6 selectivity ratio: inverse ratio of the mean IC50 values on hNaV1.7 (CHO) and hNaV1.6 (HEK-293) of Table 1; for hNaV1.7 IC50 versus WT: ratio of analogue mean IC50 to HwTx-IV WT mean IC50 on hNaV1.7
T1 construct: expressed in transfected cells
T1 sequence (Q15858 whole entry): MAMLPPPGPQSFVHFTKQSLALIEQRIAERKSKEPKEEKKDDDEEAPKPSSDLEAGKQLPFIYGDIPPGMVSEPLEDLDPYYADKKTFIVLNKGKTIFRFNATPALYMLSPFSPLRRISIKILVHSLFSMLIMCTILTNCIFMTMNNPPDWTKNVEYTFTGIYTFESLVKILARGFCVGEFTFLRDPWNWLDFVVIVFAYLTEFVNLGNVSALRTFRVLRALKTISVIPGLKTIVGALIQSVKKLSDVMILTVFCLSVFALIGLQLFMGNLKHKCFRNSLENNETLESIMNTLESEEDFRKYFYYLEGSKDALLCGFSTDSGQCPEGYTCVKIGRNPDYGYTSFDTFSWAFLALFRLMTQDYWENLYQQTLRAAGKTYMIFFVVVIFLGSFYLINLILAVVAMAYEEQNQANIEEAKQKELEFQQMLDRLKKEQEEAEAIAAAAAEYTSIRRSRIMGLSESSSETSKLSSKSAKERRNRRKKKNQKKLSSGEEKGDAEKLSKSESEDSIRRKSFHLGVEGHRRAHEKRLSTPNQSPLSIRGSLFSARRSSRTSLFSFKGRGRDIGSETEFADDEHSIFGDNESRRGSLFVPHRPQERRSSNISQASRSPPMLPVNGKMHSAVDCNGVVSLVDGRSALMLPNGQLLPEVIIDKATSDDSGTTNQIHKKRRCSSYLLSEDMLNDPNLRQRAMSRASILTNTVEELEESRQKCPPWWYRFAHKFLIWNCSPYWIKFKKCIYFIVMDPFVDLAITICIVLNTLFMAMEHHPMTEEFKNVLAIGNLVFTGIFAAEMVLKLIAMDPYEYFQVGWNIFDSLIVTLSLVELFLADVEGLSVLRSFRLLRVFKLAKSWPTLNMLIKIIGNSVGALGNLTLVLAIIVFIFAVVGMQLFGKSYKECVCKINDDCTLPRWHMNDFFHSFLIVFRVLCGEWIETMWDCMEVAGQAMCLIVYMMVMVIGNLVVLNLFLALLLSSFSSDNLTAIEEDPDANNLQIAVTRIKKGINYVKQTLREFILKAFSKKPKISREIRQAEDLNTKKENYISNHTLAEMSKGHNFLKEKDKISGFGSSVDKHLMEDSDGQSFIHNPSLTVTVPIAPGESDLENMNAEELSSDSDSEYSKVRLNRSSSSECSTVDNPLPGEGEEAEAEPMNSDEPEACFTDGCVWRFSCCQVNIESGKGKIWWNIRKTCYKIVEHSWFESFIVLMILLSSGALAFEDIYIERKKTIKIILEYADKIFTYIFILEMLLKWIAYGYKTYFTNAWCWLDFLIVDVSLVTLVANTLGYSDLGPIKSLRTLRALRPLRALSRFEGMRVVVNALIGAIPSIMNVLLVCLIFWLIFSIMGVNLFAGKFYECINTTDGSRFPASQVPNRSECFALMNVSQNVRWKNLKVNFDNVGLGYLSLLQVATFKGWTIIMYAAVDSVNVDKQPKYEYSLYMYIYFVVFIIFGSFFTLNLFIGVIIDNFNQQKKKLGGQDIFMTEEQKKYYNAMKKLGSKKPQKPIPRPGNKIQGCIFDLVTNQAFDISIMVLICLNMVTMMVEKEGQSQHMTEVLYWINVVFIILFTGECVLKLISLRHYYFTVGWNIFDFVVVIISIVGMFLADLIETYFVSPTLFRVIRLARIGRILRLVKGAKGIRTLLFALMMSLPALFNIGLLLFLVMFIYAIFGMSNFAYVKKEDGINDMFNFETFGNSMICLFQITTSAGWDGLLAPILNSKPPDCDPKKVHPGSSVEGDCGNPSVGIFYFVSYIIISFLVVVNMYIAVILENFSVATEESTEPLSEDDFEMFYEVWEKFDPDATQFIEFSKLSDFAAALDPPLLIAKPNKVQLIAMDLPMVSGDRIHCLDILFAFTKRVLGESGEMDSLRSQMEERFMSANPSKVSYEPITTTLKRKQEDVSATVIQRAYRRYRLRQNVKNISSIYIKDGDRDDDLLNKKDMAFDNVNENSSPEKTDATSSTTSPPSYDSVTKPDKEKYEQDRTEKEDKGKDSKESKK
Experimental: (§1) CHO cells stably expressing the hNaV1.7 channel subtype were cultured in Dulbecco’s Modified Eagle’s Medium F-12 (DMEM/F12) supplemented with 10% fetal bovine serum, 2 mM glutamine, 200 μg/ml hygromycine B, 10 U/ml penicillin and 10 μg/ml streptomycin (Gibco, Grand Island, NY). HEK-293 cells stably expressing the hNaV1.6 channel subtype were cultured in Dulbecco’s Modified Eagle’s Medium (DMEM) supplemented with 10% fetal calf serum, 1 mM pyruvic acid, 4.5 g/L glucose, 2 mM glutamine, 800 μg/ml G418, 10 U/ml penicillin and 10 μg/ml streptomycin (Gibco, Grand Island, NY). All cell lines were incubated at 37°C in a 5% CO2 atmosphere. For electrophysiological recordings, cells were detached with trypsin, and floating single cells were diluted (∼300,000 cells/ml) in an extracellular solution containing (in mM): 140 NaCl, 4 KCl, 2 CaCl2, 1 MgCl2, 5 glucose and 10 HEPES (pH 7.4, osmolarity 298 mOsm), that was used throughout the experiments.
HwTx-IV analogues were investigated on CHO cells expressing hNav1.7 channel and HEK-293 cells expressing hNaV1.6 channel using the automated patch-clamp system from Nanion (SyncroPatch 384 PE; München, Germany). Chips with single-hole and high-resistance (∼6–7 MΩ) were used for both cell lines. Voltage pulses and whole-cell recordings were achieved using the PatchControl384 v1.5.2 software (Nanion) and the Biomek v1.0 interface (Beckman Coulter). Prior to recordings, dissociated cells were shaken at 200 RPM in a cell hotel reservoir at 10°C. After cell catching, sealing, whole-cell formation, liquid application, recording, and data acquisition were all performed sequentially and automatically. The intracellular solution contained (in mM): 110 CsF, 10 CsCl, 10 NaCl, 1 MgCl2, 1 CaCl2, 10 EGTA and 10 HEPES (pH 7.2, osmolarity 280 mOsm), and the extracellular solution was as described above. Whole-cell experiments were done at −100 mV holding potential and at room temperature (18–22°C), while currents triggered at either −10 or 0 mV test potential were sampled at 20 kHz. Stimulation frequency was set at 0.2 Hz. Each HwTx-IV analogue was prepared at various concentrations in the extracellular solution, itself supplemented with 0.3% of bovine serum albumin (BSA), also added in the control solution. […] Compound solutions were diluted 3 times in the patch-clamp recording well by adding 30–60 μl external solution, to reach the final reported concentration and the test volume of 90 μl. For establishing dose-response curves, the compounds were tested at a test potential of either −10 or 0 mV for 50 ms with a pulse every 5 s. Percentages of current inhibition were measured at steady-state of blockage or at the end of a 15-min application time.

hNaV1.6 channel = molecular target: T2, hNaV1.6 channel (Homo sapiens, UniProt Q9UQD0); experiment: Automated patch-clamp block of hNaV1.6 peak Na+ current in HEK-293 cells; type: cell-based; conditions: for IC50: HEK-293 cells stably expressing hNaV1.6, SyncroPatch 384 PE whole-cell, holding -100 mV, 0 mV test pulse 50 ms every 5 s, room temperature 18-22°C, 0.3% BSA, steady state or end of 15-min application, mean, S.E.M. and n cells; for hNaV1.6 IC50 versus WT: ratio of analogue mean IC50 to HwTx-IV WT mean IC50 on hNaV1.6
T2 construct: expressed in transfected cells
T2 sequence (Q9UQD0 whole entry): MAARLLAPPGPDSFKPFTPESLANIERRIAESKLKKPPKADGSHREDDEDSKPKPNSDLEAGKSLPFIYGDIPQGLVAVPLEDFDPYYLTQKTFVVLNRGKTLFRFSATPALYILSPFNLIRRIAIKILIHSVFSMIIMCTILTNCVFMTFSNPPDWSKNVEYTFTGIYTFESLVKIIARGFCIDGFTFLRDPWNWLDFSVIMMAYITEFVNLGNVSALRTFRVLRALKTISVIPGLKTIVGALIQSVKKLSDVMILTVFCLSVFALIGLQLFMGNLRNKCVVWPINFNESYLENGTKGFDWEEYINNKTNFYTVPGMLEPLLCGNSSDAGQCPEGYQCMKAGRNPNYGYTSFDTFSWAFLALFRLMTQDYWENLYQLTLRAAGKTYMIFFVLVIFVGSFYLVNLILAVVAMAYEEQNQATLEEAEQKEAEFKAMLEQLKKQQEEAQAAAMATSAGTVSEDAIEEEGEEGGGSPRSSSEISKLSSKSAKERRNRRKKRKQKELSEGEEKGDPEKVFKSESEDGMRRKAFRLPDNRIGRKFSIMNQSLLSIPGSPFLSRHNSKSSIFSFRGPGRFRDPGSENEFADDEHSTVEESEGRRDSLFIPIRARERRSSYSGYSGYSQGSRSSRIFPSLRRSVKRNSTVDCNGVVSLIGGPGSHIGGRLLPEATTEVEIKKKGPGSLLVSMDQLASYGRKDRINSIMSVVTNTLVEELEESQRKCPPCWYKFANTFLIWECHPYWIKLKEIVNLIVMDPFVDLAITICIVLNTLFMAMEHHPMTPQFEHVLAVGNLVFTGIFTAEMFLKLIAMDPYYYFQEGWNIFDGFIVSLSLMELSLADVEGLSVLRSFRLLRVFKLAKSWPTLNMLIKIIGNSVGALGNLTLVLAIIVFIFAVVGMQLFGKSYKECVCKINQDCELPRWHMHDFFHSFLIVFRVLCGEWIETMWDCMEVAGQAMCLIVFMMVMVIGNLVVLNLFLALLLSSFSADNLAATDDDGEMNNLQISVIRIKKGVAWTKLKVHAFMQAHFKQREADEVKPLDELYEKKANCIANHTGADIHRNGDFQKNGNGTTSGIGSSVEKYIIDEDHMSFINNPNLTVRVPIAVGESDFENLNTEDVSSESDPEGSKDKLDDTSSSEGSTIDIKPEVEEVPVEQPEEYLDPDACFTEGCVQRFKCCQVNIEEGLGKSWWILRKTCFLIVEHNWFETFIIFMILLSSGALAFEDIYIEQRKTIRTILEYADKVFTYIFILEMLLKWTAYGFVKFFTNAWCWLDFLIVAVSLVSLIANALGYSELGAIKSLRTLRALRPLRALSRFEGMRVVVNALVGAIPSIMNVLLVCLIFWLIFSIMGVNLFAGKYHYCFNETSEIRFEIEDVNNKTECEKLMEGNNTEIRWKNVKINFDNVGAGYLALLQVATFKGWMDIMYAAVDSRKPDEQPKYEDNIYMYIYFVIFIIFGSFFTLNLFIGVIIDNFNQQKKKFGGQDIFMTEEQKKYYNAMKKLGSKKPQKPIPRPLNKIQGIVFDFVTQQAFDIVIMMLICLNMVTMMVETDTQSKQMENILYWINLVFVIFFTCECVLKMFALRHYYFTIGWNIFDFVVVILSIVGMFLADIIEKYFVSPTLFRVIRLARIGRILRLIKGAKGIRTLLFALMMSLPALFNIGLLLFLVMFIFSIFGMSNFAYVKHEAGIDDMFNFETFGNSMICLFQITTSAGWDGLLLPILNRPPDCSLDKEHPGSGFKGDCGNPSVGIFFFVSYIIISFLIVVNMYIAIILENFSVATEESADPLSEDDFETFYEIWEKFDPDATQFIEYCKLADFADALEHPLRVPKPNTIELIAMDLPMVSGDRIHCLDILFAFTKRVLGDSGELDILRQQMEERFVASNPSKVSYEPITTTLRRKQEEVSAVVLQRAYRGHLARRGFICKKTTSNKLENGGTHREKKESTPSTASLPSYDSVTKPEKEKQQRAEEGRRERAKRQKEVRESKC
Experimental: as §1
HwTx-IV analogues were investigated on CHO cells expressing hNav1.7 channel and HEK-293 cells expressing hNaV1.6 channel using the automated patch-clamp system from Nanion (SyncroPatch 384 PE; München, Germany). Chips with single-hole and high-resistance (∼6–7 MΩ) were used for both cell lines. Voltage pulses and whole-cell recordings were achieved using the PatchControl384 v1.5.2 software (Nanion) and the Biomek v1.0 interface (Beckman Coulter). Prior to recordings, dissociated cells were shaken at 200 RPM in a cell hotel reservoir at 10°C. After cell catching, sealing, whole-cell formation, liquid application, recording, and data acquisition were all performed sequentially and automatically. The intracellular solution contained (in mM): 110 CsF, 10 CsCl, 10 NaCl, 1 MgCl2, 1 CaCl2, 10 EGTA and 10 HEPES (pH 7.2, osmolarity 280 mOsm), and the extracellular solution was as described above. Whole-cell experiments were done at −100 mV holding potential and at room temperature (18–22°C), while currents triggered at either −10 or 0 mV test potential were sampled at 20 kHz. Stimulation frequency was set at 0.2 Hz. Each HwTx-IV analogue was prepared at various concentrations in the extracellular solution, itself supplemented with 0.3% of bovine serum albumin (BSA), also added in the control solution. The peptides were distributed in 384-well microplates according to the number of compounds to be tested (generally four), the concentration range defined from the IC50 of wild-type HwTx-IV, and the number of cells desired for each experimental condition. Compound solutions were diluted 3 times in the patch-clamp recording well by adding 30–60 μl external solution, to reach the final reported concentration and the test volume of 90 μl. For establishing dose-response curves, the compounds were tested at a test potential of either −10 or 0 mV for 50 ms with a pulse every 5 s. Percentages of current inhibition were measured at steady-state of blockage or at the end of a 15-min application time.

Structure (SMILES) | IC50 (hNaV1.7 channel) | hNaV1.7/hNaV1.6 selectivity ratio (hNaV1.7 channel) | hNaV1.7 IC50 versus WT (hNaV1.7 channel) | IC50 (hNaV1.6 channel) | hNaV1.6 IC50 versus WT (hNaV1.6 channel)
CC[C@H](C)[C@H](NC(=O)[C@H](CCC(N)=O)NC(=O)[C@H](Cc1ccc(O)cc1)NC(=O)[C@H](CCCCN)NC(=O)[C@@H]1CSSC[C@@H]2NC(=O)[C@H](CCC(N)=O)NC(=O)[C@H](CC(=O)O)NC(=O)[C@H](CC(N)=O)NC(=O)[C@H](CO)NC(=O)[C@@H]3CCCN3C(=O)[C@H](CC(N)=O)NC(=O)[C@@H]3CSSC[C@H](NC(=O)[C@H](C(C)C)NC(=O)[C@H](CC(C)C)NC(=O)[C@H](CCCCN)NC(=O)[C@H](CO)NC(=O)[C@H](CO)NC(=O)[C@H](CCCCN)NC(=O)[C@H](CSSC[C@H](NC(=O)[C@@H](N)CCC(=O)O)C(=O)N[C@@H](CC(C)C)C(=O)N[C@@H](CCCCN)C(=O)N[C@@H]([C@@H](C)CC)C(=O)N[C@@H](Cc4ccccc4)C(=O)N[C@@H](CCCCN)C(=O)N[C@@H](C)C(=O)N3)NC2=O)C(=O)N[C@@H](CO)C(=O)N[C@@H](CCC(N)=O)C(=O)N[C@@H](CCCCN)C(=O)N[C@@H]([C@@H](C)O)C(=O)N[C@@H](CCCNC(=N)N)C(=O)N[C@@H](Cc2c[nH]c3ccccc23)C(=O)N1)C(N)=O [HwTx-IV E^4K/R ^26Q] | 0.0036 µM | less than 2 | 0.36 | 0.0034 µM | 0.02
CC[C@H](C)[C@H](NC(=O)[C@H](CCC(N)=O)NC(=O)[C@H](Cc1ccc(O)cc1)NC(=O)[C@H](CC(N)=O)NC(=O)[C@@H]1CSSC[C@@H]2NC(=O)[C@H](CCC(N)=O)NC(=O)[C@H](CC(=O)O)NC(=O)[C@H](CC(N)=O)NC(=O)[C@H](CO)NC(=O)[C@@H]3CCCN3C(=O)[C@H](CC(N)=O)NC(=O)[C@@H]3CSSC[C@H](NC(=O)[C@H](C(C)C)NC(=O)[C@H](CC(C)C)NC(=O)[C@H](CCCCN)NC(=O)[C@H](CO)NC(=O)[C@H](CO)NC(=O)[C@H](CCCCN)NC(=O)[C@H](CSSC[C@H](NC(=O)[C@@H](N)CCC(=O)O)C(=O)N[C@@H](CC(C)C)C(=O)N[C@@H](CCCNC(=N)N)C(=O)N[C@@H]([C@@H](C)CC)C(=O)N[C@@H](Cc4ccccc4)C(=O)N[C@@H](CCCCN)C(=O)N[C@@H](C)C(=O)N3)NC2=O)C(=O)N[C@@H](CO)C(=O)N[C@@H](CCCNC(=N)N)C(=O)N[C@@H](CCCCN)C(=O)N[C@@H]([C@@H](C)O)C(=O)N[C@@H](CCCNC(=N)N)C(=O)N[C@@H](Cc2c[nH]c3ccccc23)C(=O)N1)C(N)=O [HwTx-IV E^4R/K^32N] | > 1 µM |  | >101 | > 0.333 µM | >1.5
CC[C@H](C)[C@H](NC(=O)[C@H](CCC(N)=O)NC(=O)[C@H](Cc1ccc(O)cc1)NC(=O)[C@H](CCCCN)NC(=O)[C@@H]1CSSC[C@@H]2NC(=O)[C@H](CCC(N)=O)NC(=O)[C@H](CC(=O)O)NC(=O)[C@H](CC(N)=O)NC(=O)[C@H](CO)NC(=O)[C@@H]3CCCN3C(=O)[C@H](CC(N)=O)NC(=O)[C@@H]3CSSC[C@H](NC(=O)[C@H](C(C)C)NC(=O)[C@H](CC(C)C)NC(=O)[C@H](CCCCN)NC(=O)[C@H](CO)NC(=O)[C@H](CO)NC(=O)[C@H](C)NC(=O)[C@H](CSSC[C@H](NC(=O)[C@@H](N)CCC(=O)O)C(=O)N[C@@H](CC(C)C)C(=O)N[C@@H](CCC(=O)O)C(=O)N[C@@H]([C@@H](C)CC)C(=O)N[C@@H](Cc4ccccc4)C(=O)N[C@@H](CCCCN)C(=O)N[C@@H](C)C(=O)N3)NC2=O)C(=O)N[C@@H](CO)C(=O)N[C@@H](CCCNC(=N)N)C(=O)N[C@@H](CCCCN)C(=O)N[C@@H]([C@@H](C)O)C(=O)N[C@@H](CCCNC(=N)N)C(=O)N[C@@H](Cc2c[nH]c3ccccc23)C(=O)N1)C(N)=O [HwTx-IV K^18A] | 0.0064 µM | above 46 | 0.65 | 0.416 µM | 1.84
CC[C@H](C)[C@H](NC(=O)[C@H](CCC(N)=O)NC(=O)[C@H](Cc1ccc(O)cc1)NC(=O)[C@H](CC(N)=O)NC(=O)[C@@H]1CSSC[C@@H]2NC(=O)[C@H](CCC(N)=O)NC(=O)[C@H](CC(=O)O)NC(=O)[C@H](CC(N)=O)NC(=O)[C@H](CO)NC(=O)[C@@H]3CCCN3C(=O)[C@H](CC(N)=O)NC(=O)[C@@H]3CSSC[C@H](NC(=O)[C@H](C(C)C)NC(=O)[C@H](CC(C)C)NC(=O)[C@H](CCCCN)NC(=O)[C@H](CO)NC(=O)[C@H](CO)NC(=O)[C@H](CCCCN)NC(=O)[C@H](CSSC[C@H](NC(=O)[C@@H](N)CCC(=O)O)C(=O)N[C@@H](CC(C)C)C(=O)N[C@@H](CCC(=O)O)C(=O)N[C@@H]([C@@H](C)CC)C(=O)N[C@@H](Cc4ccccc4)C(=O)N[C@@H](CCCCN)C(=O)N[C@@H](C)C(=O)N3)NC2=O)C(=O)N[C@@H](CO)C(=O)N[C@@H](CCCNC(=N)N)C(=O)N[C@@H](CCCCN)C(=O)N[C@@H]([C@@H](C)O)C(=O)N[C@@H](CCCNC(=N)N)C(=O)N[C@@H](Cc2c[nH]c3ccccc23)C(=O)N1)C(N)=O [HwTx-IV K^32N] | 5.75 µM |  | 581 | > 1 µM | >4.4
CC[C@H](C)[C@H](NC(=O)[C@H](CCC(N)=O)NC(=O)[C@H](Cc1ccc(O)cc1)NC(=O)[C@H](CCCCN)NC(=O)[C@@H]1CSSC[C@@H]2NC(=O)[C@H](CCC(N)=O)NC(=O)[C@H](CC(=O)O)NC(=O)[C@H](CC(N)=O)NC(=O)[C@H](CO)NC(=O)[C@@H]3CCCN3C(=O)[C@H](CC(N)=O)NC(=O)[C@@H]3CSSC[C@H](NC(=O)[C@H](C(C)C)NC(=O)[C@H](CC(C)C)NC(=O)[C@H](CCCCN)NC(=O)[C@H](CO)NC(=O)[C@H](CO)NC(=O)[C@H](CCCCN)NC(=O)[C@H](CSSC[C@H](NC(=O)[C@@H](N)CCC(=O)O)C(=O)N[C@@H](CC(C)C)C(=O)N[C@@H](CCC(=O)O)C(=O)N[C@@H]([C@@H](C)CC)C(=O)N[C@@H](Cc4ccccc4)C(=O)N[C@@H](CCCCN)C(=O)N[C@@H](C)C(=O)N3)NC2=O)C(=O)N[C@@H](CO)C(=O)N[C@@H](CCCNC(=N)N)C(=O)N[C@@H](CCCCN)C(=O)N[C@@H]([C@@H](C)O)C(=O)N[C@@H](CCCNC(=N)N)C(=O)N[C@@H](Cc2c[nH]c3ccccc23)C(=O)N1)C(=O)N[C@@H](CCCCN)C(=O)O [HwTx-IV K^36/CterCOOH] | 0.029 µM | above 46 | 2.93 | 1.33 µM | 5.89
